Experimental data as given in patent publication US20120045505A1, “FIXED DOSE DRUG COMBINATION FORMULATIONS” (Dr. Reddy's Laboratories, Inc., priority 2004, published 2012).

Experiments:
[1] = In vitro dissolution of capsules, USP Type 1 (Basket) apparatus, 900 mL medium, 100 rpm; type: physicochemical
Method: Dissolution profiles for drugs in capsules prepared above are determined in various media using the USP procedure and the following conditions: Type 1 (Basket) apparatus; 900 mL medium; and 100 rpm rotation. Values in the following tables are cumulative percentages of the specified drug that dissolves in the specified times. […]

[2] = Storage stability of capsules in closed HDPE bottles at 40° C. and 75% relative humidity for 6 months: drug content and drug-related impurities; type: physicochemical
Method: Capsules prepared above are stored in closed high-density polyethylene (HDPE) bottles at 40° C. and 75% relative humidity for 6 months, and are analyzed for drug content and the levels of drug-related impurity formation.
Capsules prepared above are stored in closed HDPE bottles at 40° C. and 75% relative humidity for 6 months, and are analyzed for drug content and the levels of drug-related impurities.

[3] = Example 3 capsule, 0.1N HCl, 30 Minutes
[4] = Example 3 capsule, 0.1N HCl, 60 Minutes
[5] = Example 3 capsule, pH 2.1 SGF, 30 Minutes
[6] = Example 3 capsule, pH 2.1 SGF, 60 Minutes
[7] = Example 3 capsule, pH 4.5 Acetate buffer USP, 30 Minutes
[8] = Example 3 capsule, pH 4.5 Acetate buffer USP, 60 Minutes
[9] = Example 4 capsule, 0.1N HCl, 30 Minutes
[10] = Example 4 capsule, 0.1N HCl, 60 Minutes
[11] = Example 4 capsule, pH 2.1 SGF, 30 Minutes
[12] = Example 4 capsule, pH 2.1 SGF, 60 Minutes
[13] = Example 4 capsule, pH 4.5 Acetate buffer USP, 30 Minutes
[14] = Example 4 capsule, pH 4.5 Acetate buffer USP, 60 Minutes
[15] = Example 3 capsule, 6 Months at 40° C. and 75% relative humidity, closed HDPE bottles
[16] = Example 3 capsule, 6 Months, 40° C./75% RH
[17] = Example 4 capsule, 6 Months at 40° C. and 75% relative humidity, closed HDPE bottles
[18] = Example 4 capsule, 6 Months, 40° C./75% RH, capsule containing hydrochlorothiazide
[19] = Example 4 capsule, Initial, capsule containing hydrochlorothiazide
[20] = Example 4 capsule, pH 6.8 Phosphate buffer USP, 30 Minutes
[21] = Example 4 capsule, pH 6.8 Phosphate buffer USP, 60 Minutes
[22] = Example 4 capsule, 6 Months, 40° C./75% RH

cumulative percentage of drug dissolved [1, 3] | cumulative percentage of drug dissolved [1, 4] | cumulative percentage of drug dissolved [1, 5] | cumulative percentage of drug dissolved [1, 6] | cumulative percentage of drug dissolved [1, 7] | cumulative percentage of drug dissolved [1, 8] | cumulative percentage of drug dissolved [1, 9] | cumulative percentage of drug dissolved [1, 10] | cumulative percentage of drug dissolved [1, 11] | cumulative percentage of drug dissolved [1, 12] | cumulative percentage of drug dissolved [1, 13] | cumulative percentage of drug dissolved [1, 14] | Assay (drug content) [2, 15] | Assay (drug content) ([2]; Example 3 capsule, Initial) | Assay (drug content) [2, 17] | Assay (drug content) ([2]; Example 4 capsule, Initial) | SMILES | cumulative percentage of drug dissolved [1, 20] | cumulative percentage of drug dissolved [1, 21] | other results
96% | 98% | 99% | 100% | 88% | 89% | 96% | 98% | 99% | 100% | 88% | 89% | 101.5 % of label content | 100.3 % of label content | 101.3 % of label content | 101.2 % of label content | CC(=O)Oc1ccccc1C(=O)O [Aspirin] |  |  | cumulative percentage of drug dissolved ([1]; Example 3 capsule, 0.01N HCl, 30 Minutes): 87%; cumulative percentage of drug dissolved ([1]; Example 3 capsule, 0.01N HCl, 60 Minutes): 89%; cumulative percentage of drug dissolved ([1]; Example 4 capsule, 0.01N HCl, 30 Minutes): 87%; cumulative percentage of drug dissolved ([1]; Example 4 capsule, 0.01N HCl, 60 Minutes): 89%; Impurity: Salicylic acid [2, 16]: 0.68 % of label content; Impurity: Salicylic acid ([2]; Example 3 capsule, Initial): 0.17 % of label content; Impurity: Salicylic acid [2, 18]: 0.31 % of label content; Impurity: Salicylic acid [2, 19]: 0.13 % of label content
 |  |  |  |  |  |  |  |  |  |  |  | 98.7 % of label content | 100.3 % of label content |  |  | CC(C)NCC(O)COc1ccc(CC(N)=O)cc1 (stereo not drawn) [Atenolol] |  |  | 
97% | 96% | 102% | 105% | 97% | 96% | 100% | 100% | 95% | 98% | 100% | 102% | 98.7 % of label content | 98.5 % of label content | 99.0 % of label content | 97.8 % of label content | NCCCC[C@H](N[C@@H](CCc1ccccc1)C(=O)O)C(=O)N1CCC[C@H]1C(=O)O [Lisinopril] | 94% | 95% | cumulative percentage of drug dissolved ([1]; Example 3 capsule, pH 6.5 SIF, 30 Minutes): 92%; cumulative percentage of drug dissolved ([1]; Example 3 capsule, pH 6.5 SIF, 60 Minutes): 97%; cumulative percentage of drug dissolved ([1]; Example 3 capsule, pH 6.8 Phosphate buffer USP, 30 Minutes): 96%; cumulative percentage of drug dissolved ([1]; Example 3 capsule, pH 6.8 Phosphate buffer USP, 60 Minutes): 96%; Impurity: RSS isomer [2, 16]: 0.12 % of label content; Impurity: SSS DKP [2, 16]: 0.009 % of label content; Impurity: RSS isomer ([2]; Example 3 capsule, Initial): 0.09 % of label content; Impurity: RSS isomer [2, 18]: 0.09 % of label content; Impurity: SSS DKP [2, 18]: 0.33 % of label content; Impurity: RSS isomer [2, 19]: 0.09 % of label content; Impurity: SSS DKP [2, 19]: 0.05 % of label content

SMILES | cumulative percentage of drug dissolved [1, 3] | cumulative percentage of drug dissolved [1, 4] | cumulative percentage of drug dissolved [1, 5] | cumulative percentage of drug dissolved [1, 6] | cumulative percentage of drug dissolved [1, 7] | cumulative percentage of drug dissolved [1, 8] | cumulative percentage of drug dissolved [1, 9] | cumulative percentage of drug dissolved [1, 10] | cumulative percentage of drug dissolved [1, 11] | cumulative percentage of drug dissolved [1, 12] | cumulative percentage of drug dissolved [1, 13] | cumulative percentage of drug dissolved [1, 14] | Assay (drug content) [2, 15] | Assay (drug content) ([2]; Example 3 capsule, Initial) | Assay (drug content) [2, 17] | Assay (drug content) ([2]; Example 4 capsule, Initial) | cumulative percentage of drug dissolved [1, 20] | cumulative percentage of drug dissolved [1, 21] | other results
NS(=O)(=O)c1cc2c(cc1Cl)NCNS2(=O)=O [Hydrochlorothiazide] |  |  |  |  |  |  | 100% | 100% | 88% | 98% | 91% | 97% |  |  | 99.3 % of label content | 99.5 % of label content | 82% | 85% | Impurity: CTZ [2, 22]: 0.04 % of label content; Impurity: DSA [2, 22]: 0.07 % of label content; Impurity: CTZ ([2]; Example 4 capsule, Initial): 0.04 % of label content; Impurity: DSA ([2]; Example 4 capsule, Initial): 0.04 % of label content
